In patent publication US20140378408A1, “NUCLEOSIDE 5'-PHOSPHOROTHIOATE ANALOGUES AND USES THEREOF” (BAR-ILAN UNIVERSITY, an Israeli University, priority 2012, published 2014):

How the values were obtained:
TNAP = target: T1, TNAP (Homo sapiens, UniProt P05186); assay: Hydrolysis by TNAP; format: in vitro ADME; conditions: 1 h
T1 sequence (P05186 18-501): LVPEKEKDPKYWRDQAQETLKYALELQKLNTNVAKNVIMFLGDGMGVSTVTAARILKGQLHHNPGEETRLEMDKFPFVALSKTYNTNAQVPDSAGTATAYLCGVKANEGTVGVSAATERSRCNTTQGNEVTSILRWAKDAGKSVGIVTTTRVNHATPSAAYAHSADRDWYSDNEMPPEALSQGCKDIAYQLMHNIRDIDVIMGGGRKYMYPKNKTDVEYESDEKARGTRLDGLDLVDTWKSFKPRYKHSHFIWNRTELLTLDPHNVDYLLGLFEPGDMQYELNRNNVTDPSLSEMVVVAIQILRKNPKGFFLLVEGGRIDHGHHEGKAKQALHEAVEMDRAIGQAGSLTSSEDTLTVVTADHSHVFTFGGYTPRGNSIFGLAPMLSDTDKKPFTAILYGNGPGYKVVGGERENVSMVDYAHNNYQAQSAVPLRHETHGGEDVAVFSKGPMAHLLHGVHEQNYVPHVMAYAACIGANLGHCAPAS
Description: The metabolic stability of APPCCl2P-α-S (isomer A) and APCPP-γ-S was further proven by their resistance to enzymatic hydrolysis by TNAP.

human NPP3 = target: T2, human NPP3 (Homo sapiens, UniProt O14638); assay: Hydrolysis by human NPP3; format: in vitro ADME; conditions: 100 μM, 1 h, compared to ATP
T2 construct: made in house; host or cells: COS-7 cells (transfected; protein extract / cell lysate)
T2 sequence (O14638 1-875): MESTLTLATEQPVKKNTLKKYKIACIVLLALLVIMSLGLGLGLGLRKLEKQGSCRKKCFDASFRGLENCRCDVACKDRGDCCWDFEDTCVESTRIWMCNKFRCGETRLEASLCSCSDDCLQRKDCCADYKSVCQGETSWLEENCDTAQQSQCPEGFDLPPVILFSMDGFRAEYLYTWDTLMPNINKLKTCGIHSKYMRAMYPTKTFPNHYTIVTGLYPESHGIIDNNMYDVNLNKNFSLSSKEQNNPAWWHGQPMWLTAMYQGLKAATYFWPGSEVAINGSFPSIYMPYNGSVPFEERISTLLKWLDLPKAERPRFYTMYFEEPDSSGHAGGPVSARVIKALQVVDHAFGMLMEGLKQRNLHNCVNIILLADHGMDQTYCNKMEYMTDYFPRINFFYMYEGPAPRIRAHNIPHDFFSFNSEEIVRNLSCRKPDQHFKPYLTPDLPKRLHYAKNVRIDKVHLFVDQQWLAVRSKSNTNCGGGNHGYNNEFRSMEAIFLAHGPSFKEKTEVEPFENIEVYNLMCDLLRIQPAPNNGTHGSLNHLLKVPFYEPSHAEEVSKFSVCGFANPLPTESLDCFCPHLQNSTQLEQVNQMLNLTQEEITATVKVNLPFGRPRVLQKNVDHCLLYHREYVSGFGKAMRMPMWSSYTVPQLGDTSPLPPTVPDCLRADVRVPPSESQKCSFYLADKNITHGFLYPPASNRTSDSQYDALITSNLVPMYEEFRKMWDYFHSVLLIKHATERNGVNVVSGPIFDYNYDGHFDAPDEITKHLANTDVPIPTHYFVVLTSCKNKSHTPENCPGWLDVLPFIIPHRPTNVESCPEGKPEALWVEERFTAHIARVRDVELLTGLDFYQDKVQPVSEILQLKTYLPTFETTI

[1] = ESR OH radical assay, Fe^2+/H2O2 Fenton system; conditions: N/A = minimal radical production exceeds 10%
Aβ42-Zn^2+ aggregates = target: T3, Aβ42-Zn^2+ aggregates (Homo sapiens, UniProt P05067); assay: Turbidity assay at 405 nm, Aβ42-Zn^2+ aggregates
T3 construct: Aggregation of monomeric Aβ42 was achieved by adding Zn(NO3)2 to a Aβ42 solution; purchased GL-Biochem (Shanghai)
T3 sequence (P05067 672-713 limits assumed): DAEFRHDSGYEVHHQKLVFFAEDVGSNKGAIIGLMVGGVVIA
Description: Aβ42 was weighted and dissolved in 10 mM NaOH, sonicated for 3 min and then freeze-dried. The freeze-dried Aβ42 was dissolved in 50 mM Tris-HCl (pH 7.4). The mixture was split and the pH of one of the samples was adjusted to 7.4 and the second sample to 6.6 by addition of 200 μM HCl. Two 300 μM Aβ42 mixtures were obtained. From these mixtures, controls and Aβ42-M^2+ aggregates were prepared by the addition of 1 mM Zn(NO3)2 or Cu(NO3)2 in DDW: 1. 200 μM Aβ42 (pH 7.4); 2. 200 μM Aβ42 (pH 6.6); 3.4×200 μM Aβ42-Zn^2+ (pH 7.4); 4.4×200 μM Aβ42-Cu^2+ (pH 6.6). The mixtures were left at RT for 2 h to form aggregates. 1 mM EDTA, ADP-β-S, and APCPP-γ-S in DDW were added to Aβ42-Zn^2+/Cu^2+ aggregates, then the mixtures were diluted with buffer to give the following mixtures: (i) 50 μM Aβ42-Cu^2+/Zn^2+; (ii) 50 μM Aβ42-Cu^2+/Zn^2+ containing 150 μM chelator (3 eq or) 300 μM chelator (6 eq) final volume 100 μl. The mixtures left at RT for 30 min before measurements, done in duplicate. 80 μl sample was taken for measurements in a quartz cuvette.
Aggregation of Aβ-metal ion complexes results in a turbid mixture that increases the light scattering in solution, leading to a higher absorbance at 405 nm (Storr et al., 2009).
Aggregation of monomeric Aβ42 was achieved by adding Zn(NO3)2 to a Aβ42 solution at pH 7.4, and Cu(NO3)2 to a Aβ42 solution at pH 6.6. […] The resultant Aβ42 mixtures were assayed for the resolubilization capacity of ADP-β-S and APCPP-γ-S in comparison to EDTA. […] At […] chelator, EDTA, ADP-β-S and APCPP-γ-S were almost equi-efficacious (FIG. 8B).

Row | Compound | Hydrolysis by TNAP (TNAP) | Hydrolysis by NPP3 (human NPP3) [%] | IC90 [1] [µM] | less effective than EDTA by (Aβ42-Zn^2+ aggregates; 3 eq) [%] | less effective than EDTA by (Aβ42-Zn^2+ aggregates; 6 eq) [%]
1 | Nc1ncnc2c1ncn2[C@@H]1O[C@H](COP(O)(=S)OP(=O)(O)C(Cl)(Cl)P(=O)(O)O)[C@@H](O)[C@H]1O (single isomer, unassigned; isomer a) [APPCCl2P-α-S (isomer A), adenosine 5′-[Pα-thio]-β,γ-(dichloromethylene)triphosphate] | fully stable | – | – | – | –
2 | Nc1ncnc2c1ncn2[C@@H]1O[C@H](COP(O)(=S)OP(=O)(O)CP(=O)(O)O)[C@@H](O)[C@H]1O (single isomer, unassigned; isomer a) [APPCP-α-S (isomer A), adenosine 5′-[Pα-thio]-β,γ-methylenetriphosphate] | – | ~1 | – | – | –
3 | Nc1ncnc2c1ncn2[C@@H]1O[C@H](COP(O)(=S)OP(=O)(O)CP(=O)(O)O)[C@@H](O)[C@H]1O (single isomer, unassigned; isomer b) [APPCP-α-S (isomer B), adenosine 5′-[Pα-thio]-β,γ-methylenetriphosphate] | – | ~4 | – | – | –
4 | Nc1ncnc2c1ncn2[C@@H]1O[C@H](COP(=O)(O)OP(O)(O)=S)[C@@H](O)[C@H]1O [ADP-β-S, adenosine 5′-[β-thio]diphosphate, reference compound] | – | – | 210 ± 1 | 63 | 27
5 | Nc1ncnc2c1ncn2[C@@H]1O[C@H](COP(=O)(O)CP(=O)(O)OP(O)(O)=S)[C@@H](O)[C@H]1O [APCPP-γ-S, adenosine 5′-[Pγ-thio]-α,β-methylenetriphosphate] | 2.5% | – | 211 ± 7 | 21 | 12
